Reference: article PMC6934184, “Selective DNA-PKcs inhibition extends the therapeutic index of localized radiotherapy and chemotherapy” (The Journal of Clinical Investigation, 2019)

Biological target: T1, EPHA4 (Homo sapiens, UniProt P54764)
T1 construct: purchased Thermo Fisher Scientific (Life Technologies) SelectScreen
Assay: SelectScreen Z'LYTE
Assay type: biochemical
In short: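 Percent values come from Thermo SelectScreen profiling of NU5455, combining activity and binding assays. CSF1R was run in Z'LYTE format at Km app ATP, and CAMK1 in Adapta format with ATP listed at 10.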

T1 sequence (P54764 20-986): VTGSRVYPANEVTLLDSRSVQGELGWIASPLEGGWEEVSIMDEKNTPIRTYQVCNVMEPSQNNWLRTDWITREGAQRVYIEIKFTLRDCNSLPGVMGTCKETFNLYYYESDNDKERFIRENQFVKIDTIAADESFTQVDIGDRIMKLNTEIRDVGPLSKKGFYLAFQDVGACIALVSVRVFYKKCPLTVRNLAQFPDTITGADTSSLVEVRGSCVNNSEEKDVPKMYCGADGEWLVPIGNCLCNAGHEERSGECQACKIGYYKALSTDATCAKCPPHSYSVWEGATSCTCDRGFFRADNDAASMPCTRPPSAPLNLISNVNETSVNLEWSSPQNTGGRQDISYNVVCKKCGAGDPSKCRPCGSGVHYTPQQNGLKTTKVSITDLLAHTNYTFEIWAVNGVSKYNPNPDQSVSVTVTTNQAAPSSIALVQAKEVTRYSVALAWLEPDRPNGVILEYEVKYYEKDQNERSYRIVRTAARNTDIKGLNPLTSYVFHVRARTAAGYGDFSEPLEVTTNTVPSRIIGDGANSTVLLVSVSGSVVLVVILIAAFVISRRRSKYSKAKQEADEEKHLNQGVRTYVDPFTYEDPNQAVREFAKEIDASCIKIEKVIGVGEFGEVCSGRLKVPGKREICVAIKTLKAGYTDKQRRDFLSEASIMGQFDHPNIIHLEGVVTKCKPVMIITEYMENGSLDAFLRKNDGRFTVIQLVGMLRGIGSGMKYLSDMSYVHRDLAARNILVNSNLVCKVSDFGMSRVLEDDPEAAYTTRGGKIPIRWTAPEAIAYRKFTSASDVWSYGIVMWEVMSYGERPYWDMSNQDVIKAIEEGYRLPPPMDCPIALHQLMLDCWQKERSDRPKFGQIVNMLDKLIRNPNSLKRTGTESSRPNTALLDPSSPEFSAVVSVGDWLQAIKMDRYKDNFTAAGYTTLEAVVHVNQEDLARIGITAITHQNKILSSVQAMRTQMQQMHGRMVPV

## CN(C(=O)CN1CCOCC1)c1ccc2sc3c(-c4cccc5c(=O)cc(N6CC7CCC(C6)O7)oc45)cccc3c2c1 [NU5455]
  inhibition at 1 µM: 2.9%
